In article PMC7823355, “Pretreatment Effect of Inflammatory Stimuli and Characteristics of Tryptophan Transport on Brain Capillary Endothelial (TR-BBB) and Motor Neuron Like (NSC-34) Cell Lines” (Biomedicines, 2020):
Where two headings read alike, the source gives them in different places.

Legend:
Assay type in all cases: cell-based
[1] = target: T1, LAT1 (L-type amino acid transporter 1) (Rattus norvegicus, UniProt Q63016); assay: competitive inhibition of [3H]L-tryptophan uptake in TR-BBB cells (Lineweaver-Burk)
T1 construct: gene Slc7a5; endogenous LAT1 in TR-BBB cells

[2] = target: T1, LAT1 (L-type amino acid transporter 1); assay: inhibition of [3H]L-tryptophan uptake in TR-BBB cells at […] ([…] of control); details: read-out: Relative Uptake / (% of Control)
[3] = target: T2, LAT1 (L-type amino acid transporter 1) (Mus musculus, UniProt Q9Z127); assay: radiolabelled uptake kinetics (Km) in NSC-34 cells, with LAT1 siRNA knockdown
T2 construct: gene Slc7a5; endogenous LAT1 in NSC-34 (hSOD1^WT) cells
Description: radiolabelled uptake kinetics (Km) in NSC-34 cells, with LAT1 siRNA knockdown on LAT1 (L-type amino acid transporter 1) | LAT1 mRNA expression and tryptophan uptake results indicated significant depletion effect in LAT1 siRNA-transfected WT and MT cell lines

T1 sequence (Q63016 whole entry): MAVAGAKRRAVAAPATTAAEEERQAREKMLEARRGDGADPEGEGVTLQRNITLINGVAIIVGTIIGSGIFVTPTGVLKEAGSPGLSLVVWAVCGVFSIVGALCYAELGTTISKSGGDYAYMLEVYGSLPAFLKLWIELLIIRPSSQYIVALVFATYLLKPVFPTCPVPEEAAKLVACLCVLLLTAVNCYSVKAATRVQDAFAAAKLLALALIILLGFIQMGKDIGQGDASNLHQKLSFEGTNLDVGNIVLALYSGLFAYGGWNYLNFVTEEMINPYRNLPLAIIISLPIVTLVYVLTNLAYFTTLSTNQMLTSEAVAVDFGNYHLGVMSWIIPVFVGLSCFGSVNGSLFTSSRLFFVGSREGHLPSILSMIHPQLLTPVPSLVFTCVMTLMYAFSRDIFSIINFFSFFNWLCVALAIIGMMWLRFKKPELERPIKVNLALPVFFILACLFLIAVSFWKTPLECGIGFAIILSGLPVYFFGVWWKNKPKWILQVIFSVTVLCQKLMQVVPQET
T2 sequence (Q9Z127 whole entry): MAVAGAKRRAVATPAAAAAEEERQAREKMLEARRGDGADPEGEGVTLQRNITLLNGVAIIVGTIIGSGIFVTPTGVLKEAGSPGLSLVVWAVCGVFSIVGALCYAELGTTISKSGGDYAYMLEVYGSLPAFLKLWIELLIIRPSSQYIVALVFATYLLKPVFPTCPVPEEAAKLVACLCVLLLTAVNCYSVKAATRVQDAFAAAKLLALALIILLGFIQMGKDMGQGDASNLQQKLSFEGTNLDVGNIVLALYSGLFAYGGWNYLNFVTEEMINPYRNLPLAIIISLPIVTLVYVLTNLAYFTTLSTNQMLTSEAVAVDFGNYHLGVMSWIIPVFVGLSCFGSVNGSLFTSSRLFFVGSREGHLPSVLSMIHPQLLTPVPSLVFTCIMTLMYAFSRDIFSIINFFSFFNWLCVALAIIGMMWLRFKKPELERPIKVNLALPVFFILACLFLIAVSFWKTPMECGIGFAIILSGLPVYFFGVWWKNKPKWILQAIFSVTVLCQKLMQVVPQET

SMILES: NCC1(CC(=O)O)CCCCC1 [Gabapentin]
- Ki [1]: 210 µM

SMILES: NC1(C(=O)O)CC2CCC1C2 (stereo not shown) [BCH]
- remaining activity at 2000 µM [2]: 21 ± 1.3%

SMILES: NCC(CC(=O)O)c1ccc(Cl)cc1 (stereo not shown) [Baclofen]
- Ki ([1]; read-out: Ki): 1620 µM

SMILES: N[C@@H](Cc1c[nH]c2ccccc12)C(=O)O [L-tryptophan]
- Km [3]: 33.1 ± 1.2 µM
